Among the data in the supplement of paper PMC10307832 are relative viability values, retold here.

Holding throughout (test): relative viability (nuclei count vs DMSO), 5 days (fraction); higher = more cells survive
Compound in the experiment “Erlotinib + Olaparib”: C#Cc1cccc(Nc2ncnc3cc(OCCOC)c(OCCOC)cc23)c1 [Erlotinib] + O=C(c1cc(Cc2n[nH]c(=O)c3ccccc23)ccc1F)N1CCN(C(=O)C2CC2)CC1 [Olaparib] (partner 8 µM)
The method, boiled down:
(§1)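 Nuclei were stained with Hoechst during a one-step fixation (final 0.05% Triton X-100, 1% formaldehyde, 1 ug/ml Hoechst) carried out 5 days after dosing, then counted on 4× images. The cells, lung cancer lines in 1536-well plates, had been dosed by pin tool the day after seeding with one drug alone or a fixed anchor-drug dose plus five library-drug doses (not always all listed) in √10 steps. Relative viability is the nuclei count in treated wells divided by that in vehicle wells, and each value is the median of duplicate plates.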

Compound in the experiment “AT9283 + Bortezomib”: O=C(Nc1c[nH]nc1-c1nc2ccc(CN3CCOCC3)cc2[nH]1)NC1CC1 [AT9283] + CC(C)C[C@H](NC(=O)[C@H](Cc1ccccc1)NC(=O)c1cnccn1)B(O)O [Bortezomib] (partner 0.002 µM)
The method, boiled down: as §1

Compound in the experiment “AT9283 + Linsitinib”: O=C(Nc1c[nH]nc1-c1nc2ccc(CN3CCOCC3)cc2[nH]1)NC1CC1 [AT9283] + C[C@]1(O)C[C@@H](c2nc(-c3ccc4ccc(-c5ccccc5)nc4c3)c3c(N)nccn32)C1 [Linsitinib] (partner 1 µM)
The method, boiled down:
as §1

Compound in the experiment “AT9283 + Alpelisib”: O=C(Nc1c[nH]nc1-c1nc2ccc(CN3CCOCC3)cc2[nH]1)NC1CC1 [AT9283] + Cc1nc(NC(=O)N2CCC[C@H]2C(N)=O)sc1-c1ccnc(C(C)(C)C(F)(F)F)c1 [Alpelisib] (partner 2 µM)
The method, boiled down:
as §1

Compound in the experiment “AT9283 + Olaparib”: O=C(Nc1c[nH]nc1-c1nc2ccc(CN3CCOCC3)cc2[nH]1)NC1CC1 [AT9283] + O=C(c1cc(Cc2n[nH]c(=O)c3ccccc23)ccc1F)N1CCN(C(=O)C2CC2)CC1 [Olaparib] (partner 8 µM)
The method, boiled down: as §1

On to LCLC-103H, for which the relative viability in the experiment with Erlotinib + Olaparib (first compound 0.02 µM) is 0.745; with Erlotinib + Olaparib (first compound 0.2 µM), 0.75; with Erlotinib + Olaparib (first compound 2 µM) it was 0.707; in the experiment with AT9283 + Bortezomib (first compound 0.003 µM), 1.08; with AT9283 + Bortezomib (first compound 0.03 µM), 0.935; with AT9283 + Bortezomib (first compound 0.09487 µM) it was 0.641. The relative viability with AT9283 + Bortezomib (first compound 0.3 µM) worked out at 0.538; in the experiment with AT9283 + Linsitinib (first compound 0.003 µM), 0.952; in the experiment with AT9283 + Linsitinib (first compound 0.03 µM), 1.04; in the experiment with AT9283 + Linsitinib (first compound 0.09487 µM), 1.07; in the experiment with AT9283 + Linsitinib (first compound 0.3 µM), 0.419; in the experiment with AT9283 + Alpelisib (first compound 0.003 µM) it was 0.89. In addition, the relative viability was 1.09 with AT9283 + Alpelisib (first compound 0.03 µM); 1.11 with AT9283 + Alpelisib (first compound 0.09487 µM); 0.332 with AT9283 + Alpelisib (first compound 0.3 µM); 0.77 with AT9283 + Olaparib (first compound 0.003 µM); 0.784 with AT9283 + Olaparib (first compound 0.03 µM); 0.467 with AT9283 + Olaparib (first compound 0.09487 µM). Moreover, the relative viability in the experiment with AT9283 + Olaparib (first compound 0.3 µM) is 0.37.
With NCI-H2023, the relative viability in the experiment with Erlotinib + Olaparib (first compound 0.02 µM) was 0.46; with Erlotinib + Olaparib (first compound 0.2 µM), 0.43; with Erlotinib + Olaparib (first compound 0.6325 µM) it was 0.54; with Erlotinib + Olaparib (first compound 2 µM), 0.432; in the experiment with AT9283 + Bortezomib (first compound 0.003 µM) it was 1; with AT9283 + Bortezomib (first compound 0.03 µM), 0.918. The relative viability in the experiment with AT9283 + Bortezomib (first compound 0.09487 µM) was 0.174; with AT9283 + Bortezomib (first compound 0.3 µM), 0.123; in the experiment with AT9283 + Linsitinib (first compound 0.003 µM) it was 0.765; with AT9283 + Linsitinib (first compound 0.03 µM), 0.308; with AT9283 + Linsitinib (first compound 0.09487 µM), 0.135; with AT9283 + Linsitinib (first compound 0.3 µM), 0.132. Moreover, the relative viability in the experiment with AT9283 + Alpelisib (first compound 0.003 µM) worked out at 0.634; in the experiment with AT9283 + Alpelisib (first compound 0.03 µM), 0.501; in the experiment with AT9283 + Alpelisib (first compound 0.09487 µM), 0.34; with AT9283 + Alpelisib (first compound 0.3 µM), 0.131; with AT9283 + Olaparib (first compound 0.003 µM) it was 0.511; with AT9283 + Olaparib (first compound 0.03 µM), 0.409. Moreover, the relative viability in the experiment with AT9283 + Olaparib (first compound 0.09487 µM) was found to be 0.21; with AT9283 + Olaparib (first compound 0.3 µM), 0.0856.
Consider A-427, for which the relative viability was 0.792 in the experiment with Erlotinib + Olaparib (first compound 0.02 µM); 0.757 with Erlotinib + Olaparib (first compound 0.2 µM); 0.713 with Erlotinib + Olaparib (first compound 0.6325 µM); 0.716 with Erlotinib + Olaparib (first compound 2 µM); 0.977 in the experiment with AT9283 + Bortezomib (first compound 0.003 µM); 0.427 in the experiment with AT9283 + Bortezomib (first compound 0.03 µM). Further, the relative viability worked out at 0.216 in the experiment with AT9283 + Bortezomib (first compound 0.09487 µM); 0.188 with AT9283 + Bortezomib (first compound 0.3 µM); 0.834 in the experiment with AT9283 + Linsitinib (first compound 0.003 µM); 1.03 in the experiment with AT9283 + Linsitinib (first compound 0.03 µM); 0.276 with AT9283 + Linsitinib (first compound 0.09487 µM); 0.205 in the experiment with AT9283 + Linsitinib (first compound 0.3 µM). For the same cell line, the relative viability in the experiment with AT9283 + Alpelisib (first compound 0.003 µM) worked out at 1.04; in the experiment with AT9283 + Alpelisib (first compound 0.03 µM), 1.01; with AT9283 + Alpelisib (first compound 0.09487 µM), 0.209; with AT9283 + Alpelisib (first compound 0.3 µM), 0.176; with AT9283 + Olaparib (first compound 0.003 µM) it was 0.652; in the experiment with AT9283 + Olaparib (first compound 0.03 µM), 0.428. In addition, the relative viability in the experiment with AT9283 + Olaparib (first compound 0.09487 µM) is 0.292; with AT9283 + Olaparib (first compound 0.3 µM), 0.27.
Take SK-MES-1: the relative viability in the experiment with Erlotinib + Olaparib (first compound 0.02 µM) stood at 0.821; with Erlotinib + Olaparib (first compound 0.2 µM), 0.563; with Erlotinib + Olaparib (first compound 0.6325 µM), 0.465; with Erlotinib + Olaparib (first compound 2 µM), 0.346; in the experiment with AT9283 + Linsitinib (first compound 0.003 µM), 1.07; in the experiment with AT9283 + Linsitinib (first compound 0.03 µM), 0.933. Besides, the relative viability was determined as 0.846 with AT9283 + Linsitinib (first compound 0.09487 µM); 0.17 in the experiment with AT9283 + Linsitinib (first compound 0.3 µM); 0.807 with AT9283 + Alpelisib (first compound 0.003 µM); 0.859 in the experiment with AT9283 + Alpelisib (first compound 0.03 µM); 0.509 in the experiment with AT9283 + Alpelisib (first compound 0.09487 µM); 0.173 in the experiment with AT9283 + Alpelisib (first compound 0.3 µM). The relative viability in the experiment with AT9283 + Olaparib (first compound 0.003 µM) turned out to be 0.783; with AT9283 + Olaparib (first compound 0.03 µM), 0.677; in the experiment with AT9283 + Olaparib (first compound 0.09487 µM), 0.415; in the experiment with AT9283 + Olaparib (first compound 0.3 µM) it was 0.144.
In the case of NCI-H1755, the relative viability was found to be 0.942 in the experiment with Erlotinib + Olaparib (first compound 0.02 µM); 0.892 in the experiment with Erlotinib + Olaparib (first compound 0.2 µM); 0.888 with Erlotinib + Olaparib (first compound 0.6325 µM); 0.818 with Erlotinib + Olaparib (first compound 2 µM); 0.983 in the experiment with AT9283 + Bortezomib (first compound 0.003 µM); 0.91 with AT9283 + Bortezomib (first compound 0.03 µM). Moreover, the relative viability with AT9283 + Bortezomib (first compound 0.09487 µM) came out at 0.498; with AT9283 + Bortezomib (first compound 0.3 µM) it was 0.529; in the experiment with AT9283 + Linsitinib (first compound 0.003 µM), 0.996; with AT9283 + Linsitinib (first compound 0.03 µM), 0.847; with AT9283 + Linsitinib (first compound 0.09487 µM), 0.516; with AT9283 + Linsitinib (first compound 0.3 µM), 0.404. Besides, the relative viability in the experiment with AT9283 + Alpelisib (first compound 0.003 µM) is 0.996; with AT9283 + Alpelisib (first compound 0.03 µM), 0.874; with AT9283 + Alpelisib (first compound 0.09487 µM) it was 0.35; with AT9283 + Alpelisib (first compound 0.3 µM) it was 0.381; with AT9283 + Olaparib (first compound 0.003 µM), 0.987; with AT9283 + Olaparib (first compound 0.03 µM) it was 0.859. For the same cell line, the relative viability in the experiment with AT9283 + Olaparib (first compound 0.09487 µM) worked out at 0.53; with AT9283 + Olaparib (first compound 0.3 µM), 0.45.
Take NCI-H522: the relative viability with Erlotinib + Olaparib (first compound 0.02 µM) came out at 0.614; with Erlotinib + Olaparib (first compound 0.2 µM), 0.553; with Erlotinib + Olaparib (first compound 0.6325 µM) it was 0.61; with Erlotinib + Olaparib (first compound 2 µM) it was 0.422; in the experiment with AT9283 + Olaparib (first compound 0.003 µM) it was 0.619; in the experiment with AT9283 + Olaparib (first compound 0.03 µM), 0.553. Besides, the relative viability was 0.453 in the experiment with AT9283 + Olaparib (first compound 0.09487 µM) and 0.575 with AT9283 + Olaparib (first compound 0.3 µM).
Regarding NCI-H1648, the relative viability with Erlotinib + Olaparib (first compound 0.02 µM) came to 1.4; in the experiment with Erlotinib + Olaparib (first compound 0.2 µM), 0.517; with Erlotinib + Olaparib (first compound 0.6325 µM), 0.692; in the experiment with Erlotinib + Olaparib (first compound 2 µM), 0.442; with AT9283 + Olaparib (first compound 0.003 µM), 0.636; with AT9283 + Olaparib (first compound 0.03 µM) it was 0.584. The figures for the relative viability with AT9283 + Olaparib (first compound 0.09487 µM) and with AT9283 + Olaparib (first compound 0.3 µM) were 0.254 and 0.461, respectively.
As to A549, the relative viability in the experiment with Erlotinib + Olaparib (first compound 0.02 µM) is 0.345; in the experiment with Erlotinib + Olaparib (first compound 0.2 µM), 0.303; with Erlotinib + Olaparib (first compound 0.6325 µM), 0.332; in the experiment with Erlotinib + Olaparib (first compound 2 µM), 0.269; in the experiment with AT9283 + Linsitinib (first compound 0.003 µM), 0.539; with AT9283 + Linsitinib (first compound 0.03 µM) it was 0.311. Moreover, the relative viability with AT9283 + Linsitinib (first compound 0.09487 µM) was determined as 0.0598; with AT9283 + Linsitinib (first compound 0.3 µM), 0.0613; in the experiment with AT9283 + Alpelisib (first compound 0.003 µM), 0.973; in the experiment with AT9283 + Alpelisib (first compound 0.03 µM) it was 0.0793; in the experiment with AT9283 + Alpelisib (first compound 0.09487 µM) it was 0.0636; with AT9283 + Alpelisib (first compound 0.3 µM), 0.068. Moreover, the relative viability with AT9283 + Olaparib (first compound 0.003 µM) stood at 0.358; with AT9283 + Olaparib (first compound 0.03 µM), 0.0601; with AT9283 + Olaparib (first compound 0.09487 µM) it was 0.0514; in the experiment with AT9283 + Olaparib (first compound 0.3 µM), 0.069.
